Results: article PMC3073417 (The Journal of neuroscience : the official journal of the …, 2011)

Molecular target: hTRPA1 (Homo sapiens, UniProt O75762)
Assay: whole-cell patch clamp of HEK293 cells expressing hTRPA1
Assay type: cell-based

Chain of hTRPA1 (O75762 whole entry): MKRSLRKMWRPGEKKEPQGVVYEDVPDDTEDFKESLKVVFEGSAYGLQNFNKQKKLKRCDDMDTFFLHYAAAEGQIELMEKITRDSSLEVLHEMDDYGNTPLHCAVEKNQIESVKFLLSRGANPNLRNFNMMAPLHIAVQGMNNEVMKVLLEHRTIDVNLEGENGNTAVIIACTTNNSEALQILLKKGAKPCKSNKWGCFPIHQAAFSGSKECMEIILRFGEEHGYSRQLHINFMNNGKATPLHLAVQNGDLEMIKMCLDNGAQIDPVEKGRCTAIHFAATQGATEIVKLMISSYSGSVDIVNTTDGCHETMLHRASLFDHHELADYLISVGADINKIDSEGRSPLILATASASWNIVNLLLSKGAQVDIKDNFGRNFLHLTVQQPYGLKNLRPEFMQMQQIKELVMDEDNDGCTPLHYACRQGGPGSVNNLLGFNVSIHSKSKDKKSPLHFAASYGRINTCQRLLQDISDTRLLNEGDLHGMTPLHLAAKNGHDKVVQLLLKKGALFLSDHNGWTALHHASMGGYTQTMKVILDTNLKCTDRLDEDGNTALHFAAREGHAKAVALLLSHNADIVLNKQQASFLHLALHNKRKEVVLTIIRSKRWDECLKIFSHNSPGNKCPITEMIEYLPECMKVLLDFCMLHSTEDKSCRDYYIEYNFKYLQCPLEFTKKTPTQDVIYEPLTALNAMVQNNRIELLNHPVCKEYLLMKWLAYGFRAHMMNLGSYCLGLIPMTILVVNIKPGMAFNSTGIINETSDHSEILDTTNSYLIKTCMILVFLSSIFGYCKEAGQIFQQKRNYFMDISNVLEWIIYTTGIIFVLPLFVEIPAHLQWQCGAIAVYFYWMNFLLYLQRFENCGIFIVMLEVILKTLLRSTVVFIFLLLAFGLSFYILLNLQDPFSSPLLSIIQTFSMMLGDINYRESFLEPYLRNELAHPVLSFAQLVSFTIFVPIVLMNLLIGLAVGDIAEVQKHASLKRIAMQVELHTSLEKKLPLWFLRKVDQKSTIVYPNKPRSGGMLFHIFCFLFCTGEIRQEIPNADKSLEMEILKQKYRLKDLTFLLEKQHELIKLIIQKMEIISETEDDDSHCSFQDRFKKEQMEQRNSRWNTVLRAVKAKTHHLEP

EC50: 2800 nM
Compound: C/C=C(/C=O)[C@@H](CC=O)CC(=O)OCCc1ccc(O)cc1 [OC, (−)-oleocanthal]
